{
  "source": "paper PMC9909315",
  "about": "“SY-707, an ALK/FAK/IGF1R inhibitor, suppresses growth and metastasis of breast cancer cells” (Acta Biochimica et Biophysica Sinica, 2022)",
  "key": {"ALK": {"target": "ALK (Homo sapiens, UniProt Q9UM73)", "sequence (Q9UM73 19-1620)": "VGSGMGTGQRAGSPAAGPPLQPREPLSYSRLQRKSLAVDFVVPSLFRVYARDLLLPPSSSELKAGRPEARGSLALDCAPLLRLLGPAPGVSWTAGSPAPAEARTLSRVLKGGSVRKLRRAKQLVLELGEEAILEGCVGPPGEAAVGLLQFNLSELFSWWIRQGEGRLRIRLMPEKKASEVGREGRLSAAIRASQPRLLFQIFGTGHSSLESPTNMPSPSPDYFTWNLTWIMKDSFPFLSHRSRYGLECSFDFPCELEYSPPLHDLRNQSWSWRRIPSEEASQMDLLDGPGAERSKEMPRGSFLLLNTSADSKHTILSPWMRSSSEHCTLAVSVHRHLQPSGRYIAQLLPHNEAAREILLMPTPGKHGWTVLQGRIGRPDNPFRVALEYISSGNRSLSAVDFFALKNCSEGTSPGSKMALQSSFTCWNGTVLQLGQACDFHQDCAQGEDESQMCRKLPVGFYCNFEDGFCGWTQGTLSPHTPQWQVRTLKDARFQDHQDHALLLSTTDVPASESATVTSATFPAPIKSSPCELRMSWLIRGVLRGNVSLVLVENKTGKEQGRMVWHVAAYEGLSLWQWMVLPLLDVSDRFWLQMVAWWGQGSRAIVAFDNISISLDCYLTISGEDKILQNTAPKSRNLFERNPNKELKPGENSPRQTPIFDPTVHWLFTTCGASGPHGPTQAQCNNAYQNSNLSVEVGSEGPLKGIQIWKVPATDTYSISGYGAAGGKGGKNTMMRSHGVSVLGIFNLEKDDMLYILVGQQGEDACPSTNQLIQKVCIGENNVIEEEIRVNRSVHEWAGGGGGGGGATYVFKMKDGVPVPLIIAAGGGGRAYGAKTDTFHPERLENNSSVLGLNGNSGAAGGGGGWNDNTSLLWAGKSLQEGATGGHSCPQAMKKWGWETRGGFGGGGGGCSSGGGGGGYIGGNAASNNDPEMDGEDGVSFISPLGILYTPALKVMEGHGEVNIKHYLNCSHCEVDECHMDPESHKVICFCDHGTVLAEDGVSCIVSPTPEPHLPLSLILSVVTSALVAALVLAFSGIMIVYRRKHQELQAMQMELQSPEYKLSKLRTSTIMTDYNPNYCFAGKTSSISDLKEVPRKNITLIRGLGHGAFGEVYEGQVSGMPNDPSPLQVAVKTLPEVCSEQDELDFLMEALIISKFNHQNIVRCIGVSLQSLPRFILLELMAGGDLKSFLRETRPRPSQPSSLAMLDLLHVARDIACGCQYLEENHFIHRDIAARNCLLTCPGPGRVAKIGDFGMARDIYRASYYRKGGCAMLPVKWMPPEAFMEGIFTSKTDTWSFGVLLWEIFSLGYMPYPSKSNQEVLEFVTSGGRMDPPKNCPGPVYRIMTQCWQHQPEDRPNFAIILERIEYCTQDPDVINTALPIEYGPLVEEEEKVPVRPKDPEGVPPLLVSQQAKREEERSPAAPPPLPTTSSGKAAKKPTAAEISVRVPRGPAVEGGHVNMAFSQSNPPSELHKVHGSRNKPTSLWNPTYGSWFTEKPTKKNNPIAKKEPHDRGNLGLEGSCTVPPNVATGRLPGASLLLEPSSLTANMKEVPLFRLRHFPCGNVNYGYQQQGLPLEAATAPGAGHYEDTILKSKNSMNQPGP", "assay": "Enzymatic kinetic analysis at various ATP concentrations", "type": "biochemical", "experimental": "(§1) SY-707 ( Figure 1A) was originally developed as an ALK inhibitor. […] To evaluate the in vitro enzymatic potency and selectivity of SY-707, a kinase panel screening on 96 kinases was performed to determine the inhibitory activities of SY-707 at a concentration of 1 mM. […] Then, enzymatic kinetic analysis of ALK and FAK was performed to explore the mechanisms of inhibition effect of SY-707. Activities of ALK or FAK were estimated at various concentrations of ATP in the presence or absence of SY-707.\n(§2) (C) ALK enzyme activities were evaluated at various concentrations of ATP (0–50 μM) in the presence of different concentrations of SY-707. (D) FAK enzyme activities were evaluated at various concentrations of ATP (0–333 μM) in the presence of different concentrations of SY-707."}, "FAK": {"target": "FAK (Homo sapiens, UniProt Q05397)", "sequence (Q05397 whole entry)": "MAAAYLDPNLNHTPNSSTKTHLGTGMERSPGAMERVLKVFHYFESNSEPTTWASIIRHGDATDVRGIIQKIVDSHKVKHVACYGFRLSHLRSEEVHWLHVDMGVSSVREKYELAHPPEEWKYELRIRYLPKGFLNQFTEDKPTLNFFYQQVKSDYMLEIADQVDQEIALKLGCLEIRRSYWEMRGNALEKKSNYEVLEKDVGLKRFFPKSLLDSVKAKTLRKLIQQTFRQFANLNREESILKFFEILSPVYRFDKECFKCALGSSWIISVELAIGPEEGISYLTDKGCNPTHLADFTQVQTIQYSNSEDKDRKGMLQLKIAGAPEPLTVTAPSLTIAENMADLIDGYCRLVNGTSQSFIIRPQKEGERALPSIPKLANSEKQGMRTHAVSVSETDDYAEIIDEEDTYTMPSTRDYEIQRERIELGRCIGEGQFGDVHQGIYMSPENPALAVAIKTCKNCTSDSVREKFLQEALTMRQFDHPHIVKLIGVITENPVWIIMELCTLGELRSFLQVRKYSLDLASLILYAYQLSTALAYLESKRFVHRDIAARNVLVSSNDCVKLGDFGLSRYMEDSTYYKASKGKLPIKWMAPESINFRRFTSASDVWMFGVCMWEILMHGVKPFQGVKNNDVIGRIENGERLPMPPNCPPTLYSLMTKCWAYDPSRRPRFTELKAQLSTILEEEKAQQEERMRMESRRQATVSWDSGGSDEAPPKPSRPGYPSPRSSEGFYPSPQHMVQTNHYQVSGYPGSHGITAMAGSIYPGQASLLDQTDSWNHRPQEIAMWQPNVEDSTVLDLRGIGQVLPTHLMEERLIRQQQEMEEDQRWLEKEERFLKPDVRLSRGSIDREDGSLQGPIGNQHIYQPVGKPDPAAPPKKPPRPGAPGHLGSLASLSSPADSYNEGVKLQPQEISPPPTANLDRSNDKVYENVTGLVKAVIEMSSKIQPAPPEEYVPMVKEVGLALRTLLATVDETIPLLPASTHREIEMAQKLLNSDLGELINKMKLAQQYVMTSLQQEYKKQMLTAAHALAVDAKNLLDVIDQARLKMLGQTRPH", "assay": "Enzymatic kinetic analysis at various ATP concentrations", "type": "biochemical", "experimental": "as §1, §2"}, "A549": {"system": "A549", "assay": "Cell proliferation assay (CellTiter-Glo/CellTiter-Blue)", "type": "cell-based", "details": "Homo sapiens, A549, 72 h, read-out: IC50 anti-proliferation", "experimental": "(§3) MCF-7, T47D, MDA-MB-231, MIA Paca-2, PANC-1, SW620, HT-29, U87MG, and A549 cell lines were purchased from the Cell Bank of Chinese Academy of Science (Shanghai, China). Cells were cultured in DMEM or RPMI-1640 (Gibco, BRL, USA) supplemented with 10% FBS (HyClone, Logan, USA) and 50 IU penicillin/streptomycin in a humidified atmosphere with 5% CO 2 at 37°C. The effects of SY-707 on cell proliferation were measured using CellTiter-Glo ® or CellTiter-Blue ® Cell Viability Assay kits (Promega, Beijing, China). In brief, cells were seeded in 96-well plates at low destiny with 195 μL of medium per well. The stock solutions of compounds were 3-fold serially diluted with DMSO from 10 mM to 0.3 nM, and 4 μL of solution at each concentration was mixed with 96 μL of serum free medium, then 5 μL of the resulted solution was added to each well. After treatment for 72 h, 25 μL of CellTiter-Glo ® reagent (for adherent cells) or 35 μL CellTiter-Blue ® reagent (for suspension cells) was added to each well, and the resulted mixture was further incubated at room temperature for 10 min or 4 h. The luminescence signals were measured using EnVision ® multilabel plate reader (PerkinElmer), and the fluorescent signals were examined using FlexStation 3 (Molecular Devices, Sunnyvale, USA), and the IC 50 values were calculated using Prism ® software (Version 5.0) and presented as the average of three independent experiments performed in duplicate."}, "HT29": {"system": "HT29", "assay": "Cell proliferation assay (CellTiter-Glo/CellTiter-Blue)", "type": "cell-based", "details": "Homo sapiens, HT-29, 72 h, read-out: IC50 anti-proliferation", "experimental": "as §3"}, "MCF-7": {"system": "MCF-7", "assay": "Cell proliferation assay (CellTiter-Glo/CellTiter-Blue)", "type": "cell-based", "details": "Homo sapiens, MCF7, 72 h, read-out: IC50 anti-proliferation", "experimental": "as §3"}, "MDA-MB-231": {"system": "MDA-MB-231", "assay": "Cell proliferation assay (CellTiter-Glo/CellTiter-Blue)", "type": "cell-based", "details": "Homo sapiens, MDA-MB-231, 72 h, read-out: IC50 anti-proliferation", "experimental": "as §3"}, "MIA PACA-2": {"system": "MIA PACA-2", "assay": "Cell proliferation assay (CellTiter-Glo/CellTiter-Blue)", "type": "cell-based", "details": "Homo sapiens, MIA PaCa-2, 72 h, read-out: IC50 anti-proliferation", "experimental": "as §3"}, "PANC-1": {"system": "PANC-1", "assay": "Cell proliferation assay (CellTiter-Glo/CellTiter-Blue)", "type": "cell-based", "details": "Homo sapiens, PANC-1, 72 h, read-out: IC50 anti-proliferation", "experimental": "as §3"}, "SW620": {"system": "SW620", "assay": "Cell proliferation assay (CellTiter-Glo/CellTiter-Blue)", "type": "cell-based", "details": "Homo sapiens, SW-620, 72 h, read-out: IC50 anti-proliferation", "experimental": "as §3"}, "T47D": {"system": "T47D", "assay": "Cell proliferation assay (CellTiter-Glo/CellTiter-Blue)", "type": "cell-based", "details": "Homo sapiens, 72 h, read-out: IC50 anti-proliferation", "experimental": "as §3"}, "U87MG": {"system": "U87MG", "assay": "Cell proliferation assay (CellTiter-Glo/CellTiter-Blue)", "type": "cell-based", "details": "Homo sapiens, U-87 MG, 72 h, read-out: IC50 anti-proliferation", "experimental": "as §3"}, "Pharmacokinetic study": {"assay": "Pharmacokinetic study", "type": "in vivo, SD rats", "details": "SD, serum, Rat, 5 mg/kg PO; for CL/F: read-out: Cl_F_obs (converted); for MRT inf: read-out: MRT INF_obs", "experimental": "[…] […] The serum samples were collected by centrifugation and stored at –80 °C. Compound concentrations in the sample serums were further analyzed with an API-4000 LC-MS/MS system (Applied Biosystem, Foster City, USA), and pharmacokinetic parameters ( T 1/2, T max, C max, AUC 0-INF, Cl_F_obs, MRT INF_obs, and F(%)) were calcuated using the WinNonlin software (version 6.2; WinNonlin Professional, Pharsight, USA)."}, "[1]": {"system": "phosphorylation of FAK at Tyr397 in T47D tumor tissue", "assay": "Pharmacokinetics/pharmacodynamics study in T47D xenograft model", "type": "in vivo, nude mice", "experimental": "Figure5 Anti-tumor activities of SY-707 in breast cancer xenograftsXenograft tumors were established by inoculating T47D (A, B, C) cells or 4T1 (D) cells into the nude mice. Oral administration of SY-707 alone or combined with paclitaxel was initiated when tumors reached an average of approximately 150–300 mm3 in volume and continued through the experiment. Tumor volume was measured on the indicated days with the mean tumor volume±SD indicated for each group (10 mice/group). Each treatment group was compared to vehicle group with t-test. *P<0.05, **P<0.01. (B) The tumor tissues were harvested at 2 h after the last dosage of SY-707, compound levels in tumor tissues or plasma and the phosphorylation levels of FAK were analyzed.\nTo explore the relationship between the in vivo anti-tumor growth activities and the inhibition on FAK signaling, pharmacokinetics/pharmacodynamics studies were performed in T47D xenograft model."}},
  "note": "Where two headings read alike, the source gives them in different places.",
  "data": [
    {"smiles": "COc1cc(N2CCC(N3CCN(C)CC3)CC2)ccc1Nc1nc2c(c(Nc3ccccc3S(=O)(=O)NC(C)C)n1)CCN2", "note": "[SY-707, N-isopropyl-2-((2-((2-methoxy-4-(4-(4-methylpiperazin-1-yl)piperidin-1-yl)phenyl)amino)-6,7-dihydro-5H-pyrrolo[2,3-d]pyrimidin-4-yl)amino)benzenesulfonamide]", "values": [
      {"measurement": "mode of inhibition of ALK kinase", "setting": "ALK; Lineweaver-Burk plots", "result": "ATP-competitive inhibitor"},
      {"measurement": "Ki', ALK enzyme-ATP complex", "setting": "ALK; enzyme-ATP complex", "result": 19.2, "unit": "nM"},
      {"measurement": "Ki", "setting": "ALK; free enzyme, read-out: dissociation constant (Ki), free ALK enzyme", "result": 0.9, "unit": "nM"},
      {"measurement": "mode of inhibition of FAK kinase", "setting": "FAK; double-reciprocal plots", "result": "ATP-competitive inhibitory behavior"},
      {"measurement": "Ki', FAK enzyme-ATP complex", "setting": "FAK; enzyme-ATP complex", "result": 16.1, "unit": "nM"},
      {"measurement": "Ki", "setting": "FAK; free enzyme, read-out: dissociation constant (Ki), free FAK enzyme", "result": 0.56, "unit": "nM"},
      {"measurement": "IC50", "setting": "A549", "result": 5700, "unit": "nM"},
      {"measurement": "IC50", "setting": "HT29", "result": 600, "unit": "nM"},
      {"measurement": "IC50", "setting": "MCF-7", "result": 590, "unit": "nM"},
      {"measurement": "IC50", "setting": "MDA-MB-231", "result": 1900, "unit": "nM"},
      {"measurement": "IC50", "setting": "MIA PACA-2", "result": 1300, "unit": "nM"},
      {"measurement": "IC50", "setting": "PANC-1", "result": 1200, "unit": "nM"},
      {"measurement": "IC50", "setting": "SW620", "result": 810, "unit": "nM"},
      {"measurement": "IC50", "setting": "T47D", "result": 1800, "unit": "nM"},
      {"measurement": "IC50", "setting": "U87MG", "result": "> 10000", "unit": "nM"},
      {"measurement": "AUC(0-inf)", "setting": "Pharmacokinetic study; Female", "result": 8590, "unit": "ng·h/mL"},
      {"measurement": "Cmax", "setting": "Pharmacokinetic study; Female", "result": 639, "unit": "ng/mL"},
      {"measurement": "Tmax", "setting": "Pharmacokinetic study; Female", "result": 4.33, "unit": "h"},
      {"measurement": "bioavailability", "setting": "Pharmacokinetic study; Female", "result": 33.2, "unit": "%"},
      {"measurement": "half-life", "setting": "Pharmacokinetic study; Female", "result": 11.2, "unit": "h"},
      {"measurement": "CL/F", "setting": "Pharmacokinetic study; Female", "result": 9.77, "unit": "mL/min/kg"},
      {"measurement": "MRT inf", "setting": "Pharmacokinetic study; Female", "result": 13.8, "unit": "h"},
      {"measurement": "AUC(0-inf)", "setting": "Pharmacokinetic study; Male", "result": 13300, "unit": "ng·h/mL"},
      {"measurement": "Cmax", "setting": "Pharmacokinetic study; Male", "result": 909, "unit": "ng/mL"},
      {"measurement": "Tmax", "setting": "Pharmacokinetic study; Male", "result": 3.33, "unit": "h"},
      {"measurement": "bioavailability", "setting": "Pharmacokinetic study; Male", "result": 38.3, "unit": "%"},
      {"measurement": "half-life", "setting": "Pharmacokinetic study; Male", "result": 13, "unit": "h"},
      {"measurement": "CL/F", "setting": "Pharmacokinetic study; Male", "result": 6.3, "unit": "mL/min/kg"},
      {"measurement": "MRT inf", "setting": "Pharmacokinetic study; Male", "result": 15.5, "unit": "h"},
      {"measurement": "AUC(0-inf)", "setting": "Pharmacokinetic study; both sexes, All", "result": 11000, "unit": "ng·h/mL"},
      {"measurement": "Cmax", "setting": "Pharmacokinetic study; both sexes, All", "result": 774, "unit": "ng/mL"},
      {"measurement": "Tmax", "setting": "Pharmacokinetic study; both sexes, All", "result": 3.83, "unit": "h"},
      {"measurement": "bioavailability", "setting": "Pharmacokinetic study; both sexes, All", "result": 36.2, "unit": "%"},
      {"measurement": "half-life", "setting": "Pharmacokinetic study; both sexes, All", "result": 12.1, "unit": "h"},
      {"measurement": "CL/F", "setting": "Pharmacokinetic study; both sexes, All", "result": 8.03, "unit": "mL/min/kg"},
      {"measurement": "MRT inf", "setting": "Pharmacokinetic study; both sexes, All", "result": 14.7, "unit": "h"},
      {"measurement": "concentration in tumor samples compared to plasma", "setting": "[1]; 2 h after last dosage", "result": "higher concentrations of SY-707 were also detected in tumor samples"},
      {"measurement": "phosphorylation level of FAK at Tyr397 in tumor", "setting": "[1]; tumor harvested 2 h after last dosage, vs control group", "result": "significantly decreased"}
    ]}
  ]
}
